Like-named read-outs stand apart in the source and are kept apart here.
What was measured:
CaCo-2 cells = assay: Cytostatic Action Test on Various Cells (XTT method); format: cell-based; details: for IC50: Homo sapiens, read-out: Cytostatic rate (IC50)
Method: The cytostatic measurement of the various cancer cells were conducted according to the method of the U.S. National Cancer Institute (NCI). Adhesive cells such as CaCo-2 and HepG2 were adjusted in each of the specified culture mediums at 0.5×10^5 cells/ml concentration and pipetted into a 96 well-plate (Costar3695) in an amount of 100 μl/well. The cells were cultured under the conditions of at 37° C. in 5% CO2 atmosphere for 24 hours to allow the cell adhesion, and then the numbers of each of the cells were determined by the XTT method to be recorded as the cell number of day 0 (C0days). After that, only the medium solutions were exchanged in the control groups, and culture mediums each containing the test samples adjusted to each of the specified concentrations were exchanged In the test sample dispensing groups, then the cells were cultured under the conditions of at 37° C. in 5% CO2 atmosphere for 72 hours. The numbers of each of the cells were determined by the XTT method to be recorded as the cell number of day 3 (C3days). Further, only the medium solutions were pipetted into the control groups and the test sample administration groups were adjusted to 5×10^5 cells/ml concentrations in each of the specified culture mediums containing the test samples adjusted to each of the specified concentrations, then pipetted into a 96 well-plate (Costar3695) in an amount of 100 μl/well. The cells were cultured under the condition of at 37° C. in 5% CO2 atmosphere for 72 hours, and the number of each of the cells (T3days) were determined in the same manner.
Cell proliferation rate (%) with respect to control groups=[(T3days
-C0days)/(C3days -C0days)]×100 Formula: 5

Sarcoma 180 solid tumor = assay: Antitumor Effect with respect to Sarcoma 180 Solid Tumor Mouse; format: in vivo, ICR mice; details: 10 mg/kg in abdominal cavity, 10 days; day 11
Method: The antitumor effect test was conducted according to the method of the U. S. National Cancer Institute (NCI) (Cancer Chemotherapy Reports part 3, Vol. 3, 1 (1978)). Cell suspension of Sarcoma 180 cells (mouse sarcoma virus) which was employed as the tumor cell strain for transplant was prepared by diluting the cells in the Hank's solution at 2×10^7 cells/ml concentration ([…]), and ICR mice (10 mice per group) aged 5 weeks were injected subcutaneously with 0.2 ml of the cell suspension at the region of the back. Setting the day of the tumor transplantation as day 0. the mice were administered in the abdominal cavity with the compounds of the invention (Preparation Examples 1 and 37), 5-fluorouracyl, and the solution as the control for 10 days consecutively from day 1. On day 11, the mice were sacrificed, and portions of the solid tumor were removed so that weights thereof were measured. The dosage of each of the test samples was 10 mg/kg.

Human COX-2 [1] = molecular target: T1, Human COX-2 (Homo sapiens, UniProt P35354); details: ratio of IC50 COX-1 to COX-2; cited from earlier work
T1 construct: endogenous in cells; host or cells: heparinised whole blood of a healthy human donor pretreated with aspirin, stimulated with LPS (own knowledge: COX-2 is induced in monocytes)
T1 sequence (P35354 18-604): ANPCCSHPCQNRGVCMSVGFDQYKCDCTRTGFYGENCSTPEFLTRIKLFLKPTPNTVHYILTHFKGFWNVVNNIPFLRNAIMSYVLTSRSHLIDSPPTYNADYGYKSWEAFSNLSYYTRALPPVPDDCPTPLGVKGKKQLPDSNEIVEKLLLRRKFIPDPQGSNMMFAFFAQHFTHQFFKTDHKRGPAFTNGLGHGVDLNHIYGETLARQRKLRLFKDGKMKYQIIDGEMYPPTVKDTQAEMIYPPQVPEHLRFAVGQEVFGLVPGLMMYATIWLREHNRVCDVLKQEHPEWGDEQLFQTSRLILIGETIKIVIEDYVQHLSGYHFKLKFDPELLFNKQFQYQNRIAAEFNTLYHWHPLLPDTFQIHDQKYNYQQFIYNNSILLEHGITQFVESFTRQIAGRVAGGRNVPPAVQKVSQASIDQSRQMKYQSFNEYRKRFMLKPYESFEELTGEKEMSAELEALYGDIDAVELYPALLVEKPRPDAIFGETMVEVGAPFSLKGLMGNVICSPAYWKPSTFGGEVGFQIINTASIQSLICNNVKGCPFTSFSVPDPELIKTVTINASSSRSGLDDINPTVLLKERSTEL

carrageenan footedema = assay: Carrageenan Footedema Suppression Test; format: in vivo, SD rats; details: oral; paw volume three hours after carrageenan administration
Method: The carrageenin footedema suppression test was conducted according to the method of Winter et al. (J. Pharm. Exp. Ther., Vol.141, 369 (1963)). The test samples suspended in Tween 80 were administered orally to SD rats (6 rats per 1 group) in an amount of 1 ml per 100 g of the body weight, while only the solvent was administered in the same manner as above as a control. One hour after the administration, 1% carrageenan physiological saline was injected subcutaneously to the rats in the plantar area of the right hind paw. Three hours after the carrageenan administration, the paw volumes were measured and the edematization rate (%) was calculated with Formula 1 and then edematization suppression rate (%) was calculated with Formula 2.
Edematization rate (%)=((paw volume after carrageenan injection- paw volume before carrageenan injection)/(paw volume before carrageenan injection)×100 Formula: 1
Edematization suppression rate (%)=((edematization rate of control-
edematization rate of test samples)/edematization rate of […]

Human COX-1 = molecular target: T2, Human COX-1 (Homo sapiens, UniProt P23219); assay: Human COX-1 Inhibitory Activity Test (TXB2 in blood); format: cell-based; details: IC50 from Hill Plot
T2 construct: endogenous in cells; host or cells: whole blood of a healthy human donor (own knowledge: TXB2 of clotting blood comes from platelet COX-1)
T2 sequence (P23219 24-599): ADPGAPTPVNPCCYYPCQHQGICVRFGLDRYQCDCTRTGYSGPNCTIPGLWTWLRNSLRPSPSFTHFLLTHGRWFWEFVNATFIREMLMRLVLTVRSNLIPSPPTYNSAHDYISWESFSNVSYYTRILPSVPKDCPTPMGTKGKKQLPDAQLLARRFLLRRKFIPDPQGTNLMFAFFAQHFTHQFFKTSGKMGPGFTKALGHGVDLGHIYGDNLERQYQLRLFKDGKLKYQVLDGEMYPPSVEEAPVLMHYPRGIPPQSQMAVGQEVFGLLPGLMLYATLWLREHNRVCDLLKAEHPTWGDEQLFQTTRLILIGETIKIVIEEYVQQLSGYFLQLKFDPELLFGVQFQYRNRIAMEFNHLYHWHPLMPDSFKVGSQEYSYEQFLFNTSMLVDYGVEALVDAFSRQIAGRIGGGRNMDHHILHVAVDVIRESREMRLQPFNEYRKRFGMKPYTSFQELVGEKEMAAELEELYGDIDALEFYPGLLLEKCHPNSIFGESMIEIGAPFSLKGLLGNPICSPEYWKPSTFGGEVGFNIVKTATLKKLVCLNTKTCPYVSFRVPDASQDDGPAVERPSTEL
Method: (§1) COX-1 and COX-2 activities were measured according to the method of Patrignani et al. (J. Pharm. Exp. Ther. Vol. 271, 1705 (1994)).
(1) COX-1 activity was measured in the following procedure. […] The serum obtained by 10 minutes of centrifugation at 2000 rpm at 4° C. was stored at -40° C. until the measurement of the amount of thromboxane B2 (TXB2). The test samples, which had been dissolved in ethanol and diluted to the specified concentrations, were previously dispensed into the glass test tubes, and the solvent was evaporated to dryness by Centrifugal Vaporizer (CVE-200D, manufactured by Tokyo Rika Mfg. Co., Ltd.) so that the test samples were added to the plasma.
(3) The measurement for the TXB2 content was conducted in the following procedure. In a part of a 96 well plate coated with anti-rabbit IgG antibody, 2 wells were allotted respectively to blank well, Non-specific Binding (NSB) well, Maximum Binding (B0) well, standard wells at 7 concentrations of TXB2 (1000 pg/ml) in doubling dilution ranging from 1000-15.6 pg/ml. The rest of the wells were used for the measurement of the samples. EIA buffer was added to the NSB wells (100 μl ) and B0 wells (50 μl), respectively. 50 μl of each of the standard dilution was added in an order from thinner to thicker concentrations. Each of the samples was added to the rest of the wells in an amount of 50 μl. Then, 50 μl of TXB2 tracer was added to each of the wells except for the blank wells. Further, 50 μl of TXB2 antibody was added to each of the wells except for the NSB wells and blank wells, then the well plate was covered with a plastic film and the reaction continued for 18 hours at room temperature. When the reaction was terminated, the wells were washed 5 times with a wash buffer. 200 μl of Elman's reagent was added to each of the wells and then the well plate was covered with a plastic film and developed for 60 minutes in a dark place. The absorbance at 405 nm was measured by an Immuno Reader (NJ-2000, manufactured by Nippon Intermed Co., Ltd.). From the measurement result, %B/B0 was calculated and, applying it to the approximation formula of Hill Plot, the concentration of the samples was determined to be 2,000 times concentration. […]

Human COX-2 [2] = molecular target: T1, Human COX-2; assay: Human COX-2 Inhibitory Activity Test (LPS-induced PGE2 in blood); format: cell-based
Method: as §1
(2) COX-2 activity was measured in the following procedure. To blood collected from a healthy normal who had taken 330 mg of aspirin 48 hours before the blood collection in order to inhibit the COX-1 activity, 10 unit/ml of sodium heparin was added, and then pipetted into glass test tubes by 1 ml. 10 μg/ml of Lipopolysaccharide (LPS) was added thereto and the plasma obtained by the specified operation was stored at -40° C. until the measurement for the amount of prostaglandin E2 (PGE2). Test samples containing the test samples were treated in the same manner of operation as described above.
(4) The measurement for the PGE2 content was conducted in the following procedure. In a part of 96 well plate coated with goat anti-mouse antibody, 2 wells were alloted respectively to a blank well, Non-specific Binding (NSB) well, Maximum Binding (B0) well, standard wells at seven concentrations of PGE2 (1000 pg/ml) in doubling dilution ranging from 1000-15.6 pg/ml. The rest of the wells were used for the sample measurement. EIA buffer was added to the NSB wells (100 μl) and to the B0 wells (50 μl), respectively. 50 μl of each of the standard dilution was added in an order from thinner to thicker concentrations. Each of the samples was added to the rest of the wells in an amount of 50 μl. Then, 50 μl of PGE2 tracer was added to each of the wells except for blank wells. Further, 50 μl PGE2 monoclonal antibody was added to each of the wells except for the NSB wells and blank wells, then the well plate was covered with a plastic film and the reaction continued at room temperature for 18 hours. When the reaction was terminated, the wells were washed 5 times with a wash buffer. 200 μl of Elman's reagent was added to each of the wells, and then the well plate was covered with a plastic film and developed for 60 minutes in a dark place. The absorbance at 405 nm was measured by an Immuno Reader (NJ-2000, manufactured by Nippon Intermed Co., Ltd.). From the measurement result, %B/B0 was calculated and, applying it to the approximation formula of Hill Plot, the concentration of the samples was determined to be 40 times concentration. The dilution was conducted with an EIA buffer throughout the Test Example 3.

## O=c1[nH]cc(F)c(=O)[nH]1 [5-fluorouracil, reference compound]
CaCo-2 cells; Caco-2, 72 h
  IC50: 3300 nM
Sarcoma 180 solid tumor
  Tumor Weight: 0.930 g

## CS(=O)(=O)c1ccc(-c2[nH]ccc2-c2ccc(F)cc2)cc1 [Control compound (b), 4-(4-fluorophenyl)-5-(4-methylsulfonylphenyl)-1H-pyrrole, reference compound]
Human COX-2 [1]
  COX-1/COX-2 (value specified in the literature): 29.4
Carrageenan footedema
  Edematization Suppression rate: -1.8%
Human COX-1
  IC50: 373000 nM

## Cc1cc(-c2ccc3c(ccn3C)c2)c(-c2ccc(S(C)(=O)=O)cc2)[nH]1 [Preparation Example 37, 4-(5-N-methylindolyl)-2-methyl-5-(4-methylsulfonylphenyl)-1H-pyrrole]
CaCo-2 cells; CaCo-2 cells, colon cancer cells
  cytostatic action: demonstrated a cytostatic action with respect to CaCo-2 cells
CaCo-2 cells; CaCo-2, 72 hours, XTT method
  IC50: 950 nM
Human COX-2 [2]; human blood, LPS, PGE2, IC50 from Hill Plot
  IC50: 140 nM
Human COX-2 [2]; ratio of IC50 COX-1 to COX-2
  COX-1/COX-2: > 714
Sarcoma 180 solid tumor
  Tumor Weight: 0.906 g
Carrageenan footedema
  Edematization Suppression rate: 26.5%

Source: US6294568A, “5-arylpyrrole derivatives” (priority 1997, dated 2001)
